Experimental data reported in US20210221784A1, “COMPOUNDS AND COMPOSITIONS FOR THE TREATMENT OF PAIN” (Université de Strasbourg, priority 2018, published 2021).

Assays:
[1] = target: T1, hNPFFR2 (Homo sapiens, UniProt Q9Y5X5); experiment: Radioligand binding competition, membranes from CHO cells expressing hNPFFR2; conditions: 0.015 nM [D-Tyr1[125I], N-MePhe3]-NPFF, 1 hr at 25° C., read-out: NPFF2-R Ki
T1 construct: expressed in transfected cells; membranes
Protocol: Competition experiments with membranes from CHO cells stably expressing hNPFFR1 and hNPFFR2 were performed essentially as described in Elhabazi, K., et al. Neuropharmacology, 2013. 75C, 164-171., Briefly, hNPFFR1 or hNPFFR2 membranes (5 to 10 μg of proteins) were incubated (1 hr at 25° C.; 0.25 mL total volume) with 0.015 nM [D-Tyr1[125I], N-MePhe3]-NPFF (Hartmann Analytic GmbH) in 50 mM HEPES (pH 7.4), 1 mM CaCl2, 1 mM MgCl2 and 0.1% bovine serum albumin. Non-specific binding was determined in the presence of 10 μM RFRP-3. Incubation was terminated by rapid filtration through a 96-well GF/B unifilter apparatus (Perkin Elmer Life and Analytical Sciences, Courtaboeuf, France). Unifilters were washed five times with binding buffer, then dried for 1 h at 65° C. After addition of 40 μL scintillation cocktail (Microscint-O, Perkin Elmer) per well, bound radioactivity was determined on a TopCount scintillation counter (Perkin Elmer).

[2] = tested on: C57BF6/N male mice; experiment: Fentanyl-induced hyperalgesia, tail immersion test; format: in vivo; conditions: FIG. 6B
[3] = target: T2, human NPFFR1 (hNPFFR1) receptor (Homo sapiens, UniProt Q9GZQ6); experiment: Human NPFFR1 evaluation using BRET biosensors in HEK-293 T cells; format: cell-based; conditions: hNPFFR1 in HEK-293 T cells, stimulated by EC80 RFRP-3, read-out: IC50 of antagonist activity
T2 construct: expressed in transfected cells; host or cells: HEK-293 T cells, transient co-transfection
T2 sequence (Q9GZQ6 whole entry): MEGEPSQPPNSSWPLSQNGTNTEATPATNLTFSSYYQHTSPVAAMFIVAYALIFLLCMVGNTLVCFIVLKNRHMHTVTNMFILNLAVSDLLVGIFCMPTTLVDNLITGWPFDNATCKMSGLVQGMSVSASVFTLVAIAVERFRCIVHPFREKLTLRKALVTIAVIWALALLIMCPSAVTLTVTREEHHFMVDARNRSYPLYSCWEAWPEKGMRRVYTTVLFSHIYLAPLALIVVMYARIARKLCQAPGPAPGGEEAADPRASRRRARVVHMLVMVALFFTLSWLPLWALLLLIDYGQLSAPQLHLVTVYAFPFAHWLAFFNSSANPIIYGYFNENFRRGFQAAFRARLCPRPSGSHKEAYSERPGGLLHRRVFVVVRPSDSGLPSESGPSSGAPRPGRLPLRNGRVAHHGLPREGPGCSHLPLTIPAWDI
Procedure, shortened: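 HEK-293 T cells transiently co-expressing hNPFFR1, GαoB and a Gi-effector BRET biosensor pair; agonist read after 10 min compound alone, then antagonism after EC80 RFRP-3 for 10 min. IC50 from 20-point curves over 6 logs, duplicates in two independent experiments.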

[4] = target: T3, hNPFF1R (Homo sapiens, UniProt Q9GZQ6); experiment: Glo Sensor cAMP assay in HEK-293 expressing hNPFF1R; format: cell-based; conditions: HEK-293 cells expressing hNPFF1R; FIG. 7
T3 construct: expressed in transfected cells
T3 sequence (Q9GZQ6 whole entry): as above
Protocol: The functional characterization of the selected compounds was performed by Glo Sensor cAMP kinetic assay, a validated approach for measuring Gαi/s activation by GPCRs (DiRaddo et al., 2014; Gilissen et al., 2015). HEK-Glo cells expressing either NPFF1 or NPFF2 receptors were suspended (10^6 cells per mF) in physiological Hepes buffer (10 mM HEPES, 0.4 mM NaH2PO4, 137.5 mM NaCl, 1.25 mM MgCl2, 1.25 mM CaCl2, 6 mM KCl, 10 mM glucose and 1 mg/mF bovine serum albumin, pH 7.4) supplemented with 1 mM D-Fuciferine. After equilibration for 2 h at 25° C., luminescence levels were recorded in real time in 96-well plates using a Flexstation^R 3 (Molecular Devices, Sunnyvale Calif., USA). Non-specific effect of the different compounds was evaluated in HEK-Glo cells without any recombinant human RF-amide receptors. To test the agonist activity on NPFF1R and NPFF2R, compounds were injected 15 minutes before addition of forskolin (0.5 μM) and readings were pursued for 90 minutes. To evaluate their antagonist properties, compounds were pre-incubated with cells for 15 minutes before prototypical agonists for NPFF1R (RFRP-3) and NPFF2R (NPFF) receptors. According to their preferential coupling to Gi/o proteins, the stimulation of NPFF1R and NPFF2R by agonists was monitored as a dose-dependent reduction in steady-state luminescence levels, reflecting the inhibition of forskolin-induced cAMP accumulation. Experiments were performed at 25° C. in the presence of 0.5 mM IBMX to prevent the degradation of cAMP by phosphodiesterases.

[5] = target: T4, hNPFFR1 (Homo sapiens, UniProt Q9GZQ6); experiment: Radioligand binding competition, membranes from CHO cells expressing hNPFFR1; conditions: 0.015 nM [D-Tyr1[125I], N-MePhe3]-NPFF, 1 hr at 25° C., read-out: NPFF1-R Ki
T4 construct: expressed in transfected cells; membranes
T4 sequence (Q9GZQ6 whole entry): as above
Procedure, shortened: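 CHO membranes (5–10 μg protein) stably expressing hNPFFR1 or hNPFFR2 incubated 1 h at 25 °C with 0.015 nM [D-Tyr1[125I], N-MePhe3]-NPFF in HEPES pH 7.4 with Ca2+, Mg2+, 0.1% BSA. Non-specific binding defined with 10 μM RFRP-3; bound radioactivity counted after GF/B filtration.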

[6] = tested on: NPFF receptor; conditions: Simonin et al., PNAS (2006); cited from earlier work
[7] = tested on: rat; conditions: repeated administration of opiate analgesics; cited from earlier work
[8] = tested on: C57BF6/N male mice; experiment: Neuropathic pain model (chronic constriction injury), Von Frey test; format: in vivo; conditions: morphine 3 mg/kg sc. alone or 1j 5 mg/kg p.o. alone; FIG. 4B
[9] = tested on: C57BF6/N male mice; experiment: Morphine-induced hyperalgesia and tolerance, tail immersion test; format: in vivo
[10] = tested on: C57BF6/N male mice; experiment: Incisional pain model, Von Frey test; format: in vivo; conditions: morphine 2.5 mg/kg sc. alone or 1j 5 mg/kg po alone; FIG. 3B

T1 sequence (Q9Y5X5 whole entry): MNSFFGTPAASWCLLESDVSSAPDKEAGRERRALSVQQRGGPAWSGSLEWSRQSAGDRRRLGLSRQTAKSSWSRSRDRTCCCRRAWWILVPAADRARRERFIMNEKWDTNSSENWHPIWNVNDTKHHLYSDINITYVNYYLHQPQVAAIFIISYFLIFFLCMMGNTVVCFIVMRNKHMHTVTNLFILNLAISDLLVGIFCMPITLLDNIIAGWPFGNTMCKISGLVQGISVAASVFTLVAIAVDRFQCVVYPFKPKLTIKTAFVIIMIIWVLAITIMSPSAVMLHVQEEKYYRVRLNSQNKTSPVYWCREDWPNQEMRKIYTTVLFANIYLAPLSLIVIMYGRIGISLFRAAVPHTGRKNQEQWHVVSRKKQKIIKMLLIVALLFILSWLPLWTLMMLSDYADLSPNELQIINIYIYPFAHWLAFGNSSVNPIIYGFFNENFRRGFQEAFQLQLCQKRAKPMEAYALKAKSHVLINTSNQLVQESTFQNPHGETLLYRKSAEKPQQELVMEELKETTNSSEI

## Cc1ccccc1-c1ccc(N)nc1N [Compound 1c, 3-(o-tolyl)pyridine-2,6-diamine]
[1]
  Ki: 30 µM
[2]; 0.2 mg/kg sc. 20 min before fentanyl 4×60 μg/kg sc.
  fentanyl hyperalgesia (hyperalgesia index d1 to d4): prevented fentanyl hyperalgesia
[2]; 1 mg/kg sc. 20 min before fentanyl 4×60 μg/kg sc.
  fentanyl hyperalgesia (hyperalgesia index d1 to d4): prevented fentanyl hyperalgesia
[3]
  IC50: 0.1 to 0.5 µM
[4]
  antagonist activity: effect on dose response curve of NPVF (RFRP-3), forskolin-stimulated cAMP: antagonist activity similar as compound 1j
[5]
  Ki: 0.023 µM

## N^α-adamantan-1-yl-L-Arg-L-Phe-NH2 acetate [RF9]
[6]
  NPFF receptor antagonist potency: first nanomolar NPFF receptor antagonist
[7]
  antihyperalgesic activity in vivo: reversing hyperalgesia induced by the repeated administration of opiate analgesics

## CN1CC[C@]23c4c5ccc(O)c4O[C@H]2[C@@H](O)C=C[C@H]3[C@H]1C5.Cl [morphine, Morphine hydrochloride, reference compound]
[8]
  mechanical allodynia after CCI (allodynia index d11-d21), drug alone: slightly but not significantly prevented the mechanical allodynia
[9]; daily morphine 10 mg/kg s.c., 1j 5 mg/kg oral or vehicle before morphine, FIG. 2B
  Hyperalgesia index (HI) d1 to d7: −16.2±2
[9]; morphine 5 mg/kg s.c. alone or combined with 1j 5 mg/kg p.o., after chronic morphine, FIG. 2C
  peak of analgesia at day 8: 9±0.8
[9]; morphine 5 mg/kg s.c. alone or combined with 1j 5 mg/kg p.o., FIG. 2C
  peak of analgesia at day 0: 17±0.8
[10]
  mechanical allodynia after paw incision (allodynia index d1-d6), drug alone: failed to prevent significantly the mechanical allodynia
